According to publication PMC10954593, “Gastrodinol derivatives and prenylated flavones from the flower branch of Gastrodia elata” (Natural Products and Bioprospecting, 2024):
Converted amounts (≈) assume the structure as drawn. Like-named read-outs stand apart in the source and are kept apart here.

Key:
MRSA = experiment: anti-MRSA activity (96-well culture plate, OD at 625 nm after 24 h); format: cell-based, methicillin-resistant Staphylococcus aureus; conditions: for MIC50 (50% minimum inhibitory concentration), anti-MRSA / MIC50: 24 h; for MIC50: read-out: MIC50 (50% minimum inhibitory concentration), anti-MRSA; for inhibition at 100 µM: read-out: Inhibition rate (%) of MRSA; for anti-MRSA activity (in words): abstract statement
Method: Prepare samples with DMSO as a solvent into a solution with an initial concentration of 20 mM; Take a 96-well culture plate, dilute the sample to be measured, and add bacterial solution to each well, and the final concentration is 5 × 10^5 CFU/mL; Incubate at 37 °C for 24 h, and the microplate reader determines the OD value at 625 nm. The experiment also set up a media blank control, a bacterial control and a vancomycin-positive drug control.
MIC50 (50% minimum inhibitory concentration) is calculated according to the Reed & Muench method.

AChE = AChE (Homo sapiens, UniProt P22303); experiment: biochemical; format: biochemical; conditions: for inhibition at 50 µM: concentration 50 μM, read-out: AChE inhibition rate, primary screening; for IC50: positive control tacrine, read-out: IC50 of AChE-inhibiting activity; for acetylcholinesterase inhibitory activity (in words): abstract statement
Method: The reaction is carried out in a 96-well plate with plates plated by 200 μL/system with 3 replicates per sample; Detect the absorbance value of 405 nm every 30 s within 1 h after the addition of the color developer and substrate.

[1] = Staphylococcus aureus, MRSA, Reed & Muench method, 37 °C
[2] = Staphylococcus aureus, MRSA, concentration 100 μM, preliminary screen

Chain of AChE (P22303 32-614): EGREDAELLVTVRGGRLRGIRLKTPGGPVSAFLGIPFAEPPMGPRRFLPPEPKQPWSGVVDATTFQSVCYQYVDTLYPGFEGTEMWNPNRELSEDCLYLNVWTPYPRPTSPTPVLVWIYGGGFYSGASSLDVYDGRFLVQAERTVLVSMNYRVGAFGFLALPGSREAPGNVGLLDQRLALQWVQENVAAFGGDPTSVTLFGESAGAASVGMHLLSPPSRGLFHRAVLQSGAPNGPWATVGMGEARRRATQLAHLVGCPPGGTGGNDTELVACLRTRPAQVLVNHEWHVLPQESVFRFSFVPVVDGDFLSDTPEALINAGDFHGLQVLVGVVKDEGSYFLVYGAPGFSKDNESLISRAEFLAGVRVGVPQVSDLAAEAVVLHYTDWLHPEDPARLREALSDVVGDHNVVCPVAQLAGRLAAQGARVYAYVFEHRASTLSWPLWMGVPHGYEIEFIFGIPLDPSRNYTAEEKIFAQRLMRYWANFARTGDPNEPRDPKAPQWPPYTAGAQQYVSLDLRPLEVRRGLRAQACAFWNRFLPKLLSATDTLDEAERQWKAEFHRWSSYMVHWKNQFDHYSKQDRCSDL

Compound	MIC50 (50% minimum inhibitory concentration), anti-MRSA (MRSA; Reed & Muench method, 37 °C) [µM]	MIC50 (MRSA; [1]) [µM]	inhibition at 100 µM (MRSA; [2]) [%]	anti-MRSA activity (in words) (MRSA)	inhibition at 50 µM (AChE) [%]	IC50 (AChE) [µM]	MIC50 (MRSA; Staphylococcus aureus, MRSA) [µM]	inhibition at 100 µM (MRSA; Staphylococcus aureus, MRSA) [%]	acetylcholinesterase inhibitory activity (in words) (AChE)	MIC50 (MRSA; Reed & Muench method, 37 °C) [µM]
CC(C)=CCc1c(-c2ccc(O)cc2O)oc2c(CC=C(C)C)c(O)cc(O)c2c1=O [Compound 12, kuwanon C]	1.911 ± 0.018 (≈ 0.807 µg/mL)	1.91 (≈ 0.807 µg/mL)	> 80	good activity						
CC(C)=CCc1c(O)cc(O)c2c(=O)c3c(oc12)-c1ccc(O)cc1OC3C=C(C)C (stereo not drawn) [Compound 11, cyclomulberrin]	1.908 ± 0.014 (≈ 0.802 µg/mL)	1.91 (≈ 0.802 µg/mL)	> 80	good activity						
COc1cc(O)c2c3c(ccc2c1Cc1ccc(O)cc1)C(=O)C(Cc1ccc(O)cc1)(Cc1ccc(O)cc1)C3=O [Compound 2, 9-hydroxy-2,2,6-tris(4-hydroxybenzyl)-7-methoxy-1H-cyclopenta[a]naphthalene-1,3(2H)-dione]			77.2 ± 1.61		> 60	24.7 ± 0.732				
COc1cc2ccc3c(c2c(O)c1Cc1ccc(O)cc1)C(=O)C(Cc1ccc(O)cc1)(Cc1ccc(O)cc1)C3=O [Compound 3, 9-hydroxy-2,2,8-tris(4-hydroxybenzyl)-7-methoxy-1H-cyclopenta[a]naphthalene-1,3(2H)-dione]			13.5 ± 2.48		> 60	15.7 ± 1.57				
CN[C@H](CC(C)C)C(=O)N[C@H]1C(=O)N[C@@H](CC(N)=O)C(=O)N[C@H]2C(=O)N[C@H]3C(=O)N[C@H](C(=O)N[C@H](C(=O)O)c4cc(O)cc(O)c4-c4cc3ccc4O)[C@H](O)c3ccc(c(Cl)c3)Oc3cc2cc(c3O[C@@H]2O[C@H](CO)[C@@H](O)[C@H](O)[C@H]2O[C@H]2C[C@](C)(N)[C@H](O)[C@H](C)O2)Oc2ccc(cc2Cl)[C@H]1O [Vancomycin, reference compound]							0.433 ± 0.002 (≈ 0.628 µg/mL)	98.86 ± 0.495		
CC1=CC2c3c(cc(-c4cc5ccc(O)cc5o4)c(Cc4ccc(O)cc4)c3O)OC3(c4ccc(O)cc4O)Oc4cc(O)ccc4C(C1)C23 (stereo not drawn) [Compound 9, 8a-(2,4-dihydroxyphenyl)-6-(6-hydroxybenzofuran-2-yl)-5-(4-hydroxybenzyl)-2-methyl-1,3a1,8a,13b-tetrahydro-3aH-benzo [3, 4] isochromeno[1,8-bc] chromene-4,11-diol]			63.95 ± 0.124		> 60	0.488 ± 0.032			good acetylcholinesterase inhibitory activity	
CC1=C[C@H]2c3c(O)cc(-c4cc5ccc(O)cc5o4)cc3O[C@@]3(c4ccc(O)cc4O)Oc4cc(O)ccc4[C@H](C1)[C@@H]23 [Compound 13, mulberrofuran G]	1.264 ± 0.005 (≈ 0.711 µg/mL)	1.26 (≈ 0.711 µg/mL)	> 80	good activity	> 60	1.06 ± 0.011			good acetylcholinesterase inhibitory activity	
CC1(C)C=Cc2c(cc(O)c3c(=O)c(CC(O)C(C)(C)O)c(-c4ccc(O)cc4O)oc23)O1 (stereo not drawn) [Compound 6, 3-(2,3-dihydroxy-3-methylbutyl)-2-(2,4-dihydroxyphenyl)-5-hydroxy-8,8-dimethyl-4H,8H-pyrano[2,3-f] chromen-4-one]		61.6 ± 1.56 (≈ 28 µg/mL)	> 80							
COc1c(Cc2ccc(O)cc2)c(O)c2c3c(ccc2c1Cc1ccc(O)cc1)C(O)CCC3=O (stereo not drawn) [Compound 1, 1,5-dihydroxy-6,8-bis(4-hydroxybenzyl)-7-methoxy-2,3-dihydrophenanthren-4(1H)-one]		22.06 ± 0.026 (≈ 10.4 µg/mL)	> 80							
Cc1ccc2c(c1)-c1cc(C3CC(=O)c4c(O)cc(O)cc4O3)c(O)cc1OC2(C)C (stereo not drawn) [Compound 5, 5,7-dihydroxy-2-(3-hydroxy-6,6,9-trimethyl-6H-benzo[c]chromen-2-yl) chroman-4-one]	4.46 ± 0.02 (≈ 1.87 µg/mL)	4.4 (≈ 1.84 µg/mL)	> 80	good activity						4.46 (≈ 1.87 µg/mL)
